pEC50, pIC50: −log10 of the molar value. In brackets after ≈: the same amount, converted by molar mass.
Legend:
[1] = test system: Plasmodium falciparum; assay: Antimalarial activity against Plasmodium falciparum asexual blood stage form infected in human assessed as parasite clearance half-life at 10 mg, po after 8 days; assay type: functional, organism-based
[2] = Inhibition of Plasmodium falciparum PI4K by pull down assay; design: species or system Plasmodium vivax
[3] = test system: Plasmodium vivax; assay: Antimalarial activity against Plasmodium vivax assessed as reduction in parasite growth after 72 hrs by SYBR-green based fluorescence assay; assay type: functional, organism-based
[4] = test system: Plasmodium vivax; assay: Antimalarial activity against Plasmodium vivax infected in human assessed as median parasite clearance time at 400 […], po administered for 3 consecutive day and measured on day 5; assay type: functional
[5] = test system: Plasmodium falciparum; assay: Antimalarial activity against Plasmodium falciparum infected in human assessed as median parasite clearance time at 800 […], po and measured on day 5; assay type: functional
[6] = Cmax in human at 10 to 1200 mg and measured up to 360 hrs by LC-MS/MS method; assay type: ADME; conditions: in vivo
[7] = Oral bioavailability in Wistar Hannover rat at 10 mg/kg by LC-MS/MS analysis; assay type: ADME, organism-based; conditions: in vivo
[8] = Apparent clearance in human at 10 to 1200 mg and measured up to 360 hrs by LC-MS/MS method; assay type: ADME; conditions: in vivo, read-out: CL(app)
[9] = Cmax in Wistar Hannover rat at 10 mg/kg, po by LC-MS/MS analysis; assay type: ADME, organism-based; design: dose 10 mg/kg, route oral; conditions: in vivo
[10] = Tmax in Wistar Hannover rat at 10 mg/kg, po by LC-MS/MS analysis; assay type: ADME, organism-based; conditions: in vivo
[11] = test system: Plasmodium falciparum; assay: Antimalarial activity against Plasmodium falciparum infected in human assessed as median parasite clearance time at 400 […], po administered for 3 consecutive day and measured on day 5; assay type: functional
[12] = Plasma clearance in Wistar Hannover rat at 3 mg/kg, iv by LC-MS/MS analysis; assay type: ADME, organism-based
[13] = Half life in Wistar Hannover rat at 10 mg/kg, po by LC-MS/MS analysis; assay type: ADME, organism-based; conditions: in vivo
[14] = test system: Plasmodium falciparum; assay: Antimalarial activity against Plasmodium falciparum assessed as reduction in parasite growth after 72 hrs by SYBR-green based fluorescence assay; assay type: functional, organism-based
[15] = Half life in Wistar Hannover rat at 3 mg/kg, iv by LC-MS/MS analysis; assay type: ADME, organism-based; conditions: in vivo
[16] = Half life in human infected with Plasmodium vivax at 400 mg administered for 3 consecutive days and measured up to 192 hrs; assay type: ADME; conditions: in vivo
[17] = Half life in human infected with Plasmodium falciparum at 400 mg administered for 3 consecutive days and measured up to 192 hrs; assay type: ADME; conditions: in vivo
[18] = Cardiotoxicity in human assessed as effect on QT parameters at 800 mg in presence of PPQ; assay type: toxicity; conditions: in vivo
[19] = Cardiotoxicity in human assessed as effect on QT parameters at 800 mg; assay type: toxicity
[20] = test system: Plasmodium vivax; assay: Antimalarial activity against Plasmodium vivax infected in human assessed as median parasite clearance time at 800 […], po and measured on day 5; assay type: functional
[21] = Volume of distribution at steady state in Wistar Hannover rat at 3 mg/kg, iv by LC-MS/MS analysis; assay type: ADME, organism-based; conditions: in vivo, read-out: Vdss
[22] = Half life in human at 10 to 1200 mg and measured up to 360 hrs by LC-MS/MS method; assay type: ADME; conditions: in vivo
[23] = Volume of distribution in human at 10 to 1200 mg and measured up to 360 hrs by LC-MS/MS method; assay type: ADME; conditions: in vivo
[24] = Tmax in human at 10 to 1200 mg and measured up to 360 hrs by LC-MS/MS method; assay type: ADME; conditions: in vivo
[25] = Half life in human at 25 to 1200 mg, po measured up to 480 hrs by HPLC-MS/MS analysis; assay type: ADME, organism-based; conditions: in vivo
[26] = Tmax in human at 25 to 1200 mg, po measured up to 480 hrs by HPLC-MS/MS analysis; assay type: ADME, organism-based; conditions: in vivo
[27] = test system: Plasmodium falciparum; assay: Antimalarial activity against Plasmodium falciparum 3D7; assay type: functional, organism-based
[28] = AUC (0 to infinity) in human at 25 to 1200 mg, po measured up to 480 hrs by HPLC-MS/MS analysis; assay type: ADME, organism-based; conditions: in vivo
[29] = test system: Plasmodium falciparum; assay: Antimalarial activity against Plasmodium falciparum asexual blood stage form infected in human assessed as reduction in parasite growth at 250 mg, po measured on day 14 by blood smear based assay relative to control; assay type: functional; design: scale not given: the % may be the effect or the level left
[30] = molecular target: Voltage-gated inwardly rectifying potassium channel KCNH2 (Homo sapiens, UniProt Q12809); assay: Inhibition of human ERG by patch clamp method
[31] = test system: Plasmodium falciparum; assay: Antimalarial activity against Plasmodium falciparum asexual blood stage form infected in human assessed as parasite clearance half-life; assay type: functional, organism-based
[32] = Plasma clearance in Beagle dog at 1 mg/kg, iv by LC-MS analysis; assay type: ADME, organism-based, Canis lupus familiaris
[33] = Plasma clearance in monkey at 1 mg/kg, iv by LC-MS analysis; assay type: ADME, organism-based, Macaca mulatta; conditions: rhesus monkey
[34] = Cmax in human at 25 to 1200 mg, po measured up to 480 hrs by HPLC-MS/MS analysis; assay type: ADME, organism-based; conditions: in vivo
[35] = test system: Plasmodium cynomolgi; assay: Antimalarial activity against Plasmodium cynomolgi liver stage form infected in human hepatocytes; assay type: functional, organism-based
[36] = Half life in Beagle dog at 1 mg/kg, iv by LC-MS analysis; assay type: ADME, organism-based, Canis lupus familiaris; conditions: in vivo
[37] = Inhibition of Plasmodium vivax DHODH expressed in Escherichia coli using L-dihydroorotate as substrate
[38] = test system: Plasmodium falciparum; assay: Antimalarial activity against Plasmodium falciparum asexual blood stage form infected in human assessed as reduction in parasite growth at 400 mg, po after 72 hrs by blood smear based assay relative to control; assay type: functional; design: scale not given: the % may be the effect or the level left
[39] = test system: Plasmodium falciparum; assay: Antimalarial activity against Plasmodium falciparum asexual blood stage form infected in human assessed as reduction in parasite growth at 400 mg, po measured on day 14 by qPCR analysis relative to control; assay type: functional; design: scale not given: the % may be the effect or the level left
[40] = AUC in monkey at 1 mg/kg, iv by LC-MS analysis; assay type: ADME, organism-based, Macaca mulatta; conditions: rhesus monkey, in vivo
[41] = test system: Plasmodium falciparum; assay: Antimalarial activity against mefloquine/chloroquine-resistant Plasmodium falciparum asexual blood stage forms assessed as parasite clearance time at 10 times EC50; assay type: functional
[42] = test system: Plasmodium falciparum; assay: Antimalarial activity against Plasmodium falciparum asexual blood stage form infected in human assessed as parasite clearance half-life at 150 mg, po after 8 days; assay type: functional, organism-based
[43] = test system: Plasmodium vivax; assay: Antimalarial activity against schizont stage of Plasmodium vivax clinical isolate; assay type: functional, organism-based
[44] = AUC in Beagle dog at 1 mg/kg, iv by LC-MS analysis; assay type: ADME, organism-based, Canis lupus familiaris; conditions: in vivo
[45] = test system: Plasmodium falciparum; assay: Antimalarial activity against mefloquine/chloroquine-resistant Plasmodium falciparum asexual blood stage forms assessed as parasite clearance time at 100 times EC50; assay type: functional
[46] = test system: Plasmodium vivax; assay: Antimalarial activity against Plasmodium vivax infected in human erythrocytes assessed as reduction in [3H]-hypoxanthine incorporation incubated for 40 hrs followed by addition of [3H]-hypoxanthine and measured after 4 hrs by liquid scintillation counting method; assay type: functional, organism-based
[47] = test system: Plasmodium falciparum; assay: Antimalarial activity against schizont stage of Plasmodium falciparum clinical isolate; assay type: functional, organism-based
[48] = test system: Plasmodium falciparum; assay: Antimalarial activity against Plasmodium falciparum NF54 liver stage form schizonts infected in human hepatocytes assessed as EEF diameter; assay type: functional, organism-based
[49] = test system: Plasmodium falciparum; assay: Antimalarial activity against Plasmodium falciparum 3D7 infected in qd administered po dosed NOD-scid IL-2Rgamma null mouse assessed as reduction in parasite growth after 3 day by flow cytometric analysis; assay type: functional
[50] = test system: Plasmodium falciparum; assay: Antimalarial activity against Plasmodium falciparum asexual blood stage form infected in human assessed as reduction in parasite growth at 400 mg, po measured on day 14 by blood smear based assay relative to control; assay type: functional; design: scale not given: the % may be the effect or the level left
[51] = test system: Plasmodium falciparum; assay: Antimalarial activity against Plasmodium falciparum asexual blood stage form infected in human assessed as reduction in parasite growth after 10 to 22 days; assay type: functional
[52] = test system: Plasmodium falciparum; assay: Antimalarial activity against mefloquine/chloroquine-resistant Plasmodium falciparum asexual blood stage forms; assay type: functional, organism-based
[53] = Half life in monkey at 1 mg/kg, iv by LC-MS analysis; assay type: ADME, organism-based, Macaca mulatta; conditions: rhesus monkey, in vivo
[54] = test system: Plasmodium falciparum; assay: Antimalarial activity against Plasmodium falciparum 3D7 infected in bid administered po dosed NOD-scid IL-2Rgamma null mouse assessed as reduction in parasite growth after 3 day by flow cytometric analysis; assay type: functional
[55] = Plasmodium falciparum, 3D7, po, 72 h

Chain of Voltage-gated inwardly rectifying potassium channel KCNH2 (Q12809 whole entry): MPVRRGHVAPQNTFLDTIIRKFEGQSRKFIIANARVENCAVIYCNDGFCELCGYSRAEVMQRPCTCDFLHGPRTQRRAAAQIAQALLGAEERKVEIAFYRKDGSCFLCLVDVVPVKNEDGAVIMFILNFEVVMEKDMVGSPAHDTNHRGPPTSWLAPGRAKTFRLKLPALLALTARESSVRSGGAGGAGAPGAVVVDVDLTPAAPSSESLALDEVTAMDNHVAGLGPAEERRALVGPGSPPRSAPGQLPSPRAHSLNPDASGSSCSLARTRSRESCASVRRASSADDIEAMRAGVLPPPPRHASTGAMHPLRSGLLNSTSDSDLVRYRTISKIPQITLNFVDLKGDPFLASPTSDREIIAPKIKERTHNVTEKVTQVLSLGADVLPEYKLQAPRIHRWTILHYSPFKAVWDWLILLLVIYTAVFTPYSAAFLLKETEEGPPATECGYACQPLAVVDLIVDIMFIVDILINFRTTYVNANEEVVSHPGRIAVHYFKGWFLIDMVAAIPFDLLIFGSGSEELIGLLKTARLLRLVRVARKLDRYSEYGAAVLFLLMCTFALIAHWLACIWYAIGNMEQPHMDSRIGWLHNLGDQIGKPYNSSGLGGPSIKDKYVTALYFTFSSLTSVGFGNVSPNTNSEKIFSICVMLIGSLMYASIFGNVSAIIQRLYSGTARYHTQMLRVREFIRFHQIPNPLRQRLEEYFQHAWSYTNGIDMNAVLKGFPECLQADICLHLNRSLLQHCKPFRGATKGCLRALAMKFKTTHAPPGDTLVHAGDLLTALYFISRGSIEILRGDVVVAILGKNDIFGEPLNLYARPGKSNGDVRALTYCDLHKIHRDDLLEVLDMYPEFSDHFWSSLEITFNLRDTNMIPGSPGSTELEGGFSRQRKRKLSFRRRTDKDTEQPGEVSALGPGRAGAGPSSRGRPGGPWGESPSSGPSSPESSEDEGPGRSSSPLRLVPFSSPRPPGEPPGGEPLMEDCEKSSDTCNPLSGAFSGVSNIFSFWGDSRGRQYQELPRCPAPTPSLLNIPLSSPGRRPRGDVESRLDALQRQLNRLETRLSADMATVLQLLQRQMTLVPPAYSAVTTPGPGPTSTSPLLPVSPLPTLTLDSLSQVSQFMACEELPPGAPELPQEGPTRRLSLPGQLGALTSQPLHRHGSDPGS

O[C@@H](c1cc(C(F)(F)F)nc2c(C(F)(F)F)cccc12)[C@H]1CCCCN1
T1/2 [1]: 6.2 h

Nc1ncc(-c2ccc(C(=O)N3CCC(N)C3)cc2)nc1-c1ccc(C(F)(F)F)cc1 (centres undefined)
pEC50 [2]: 8.80

CC1(C)c2nc(-c3ccc(F)cc3)c(Nc3ccc(F)cc3)n2CCN1C(=O)CN [GANAPLACIDE]
pEC50 [3]: 8.26 | Time [4]: 24 h | Time [5]: 49 h | Cmax [6]: 7.6 to 2720 ng/mL | bioavailability [7]: 48% | clearance [8]: 267 to 583 mL/min | Cmax [9]: 139 ng/mL | Tmax [10]: 2 h | Time [11]: 45 h | clearance [12]: 90 mL/min/kg | half-life [13]: 5.7 h | pEC50 [14]: 7.90 | half-life [15]: 6.6 h | half-life [16]: 44 h | half-life [17]: 44 h | Activity [18]: 58.3% | Activity [19]: 87.5% | Time [20]: 24 h | Vd [21]: 29.5 L/kg | half-life [22]: 47 to 70 h | Vd [23]: 1610 to 2410 L | Tmax [24]: 1 to 6 h

CC(F)(F)c1nc2nc(CO)cc(Nc3ccc(S(F)(F)(F)(F)F)cc3)n2n1
half-life [25]: 98 to 164 h | Tmax [26]: 95 to 143 h | pEC50 [27]: 5.74 | AUC(0-inf) [28]: 167 to 1170 µg·h/mL

Cc1cc(Nc2ccc(S(F)(F)(F)(F)F)cc2)n2nc(C(C)(F)F)nc2n1 [DSM-265]
Activity [29]: 88% | half-life [25]: 86 to 118 h | pIC50 [30]: 5.16 to 5.80 | T1/2 [31]: 5 h | clearance [32]: 0.367 to 0.9 mL/min/kg | clearance [33]: 0.367 to 0.9 mL/min/kg | Cmax [34]: 1310 to 34800 ng/mL | EC50 [35]: 0.13 µg/mL (≈ 0.313 µM) | Tmax [26]: 1.5 to 4 h | half-life [36]: 10 to 45 h | pEC50 [37]: 7.70 | Activity [38]: 100% | Activity [39]: 100% | AUC [40]: 16.7 to 46.9 µg·h/mL | Time [41]: 85 h | T1/2 [42]: 9.4 h | pEC50 [43]: 6.72 | AUC [44]: 16.7 to 46.9 µg·h/mL | AUC(0-inf) [28]: 107 to 4720 µg·h/mL | Time [45]: 82 h | pEC50 [46]: 6.28 | pEC50 [47]: 6.04 | EC50 [48]: 0.0057 µg/mL (≈ 0.0137 µM) | MIC [49]: 13 mg/kg | ED90 [49, 55]: 3 mg/kg | Activity [50]: 100% | MIC [51]: 1.04 µg/mL (≈ 2.5 µM) | pEC50 [52]: 7.80 to 8.15 | half-life [53]: 10 to 45 h | MIC [54]: 6.4 mg/kg | ED90 [54, 55]: 1.5 mg/kg

— ChEMBL document CHEMBL4376815, “The Development Process for Discovery and Clinical Advancement of Modern Antimalarials” (J Med Chem, 2019)
